The values below are quoted from earlier work in patent publication US20190328869A1, “IMMUNOTHERAPEUTIC PRODUCT AND MDSC MODULATOR COMBINATION THERAPY” (Transgene SA, priority 2016, published 2019).

SMILES strings stand for the structures.

One series deals with circulating CD34+ MDSCs. Particulars: head and neck cancer patients; cited from earlier work.
In series [1] the test system is HBV-specific CD4+ and CD8+ T cells in PBMCs. Particulars: PBMCs from chronically HBV infected patients; cited from earlier work.
In series [2] the test system is circulating CD33+HLA-DR− MDSCs. Particulars: patients with metastatic renal cell carcinoma; cited from earlier work.

For `C=C1CC[C@H](O)C/C1=C/C=C1\CCC[C@]2(C)[C@@H]([C@H](C)CCCC(C)(C)O)CC[C@@H]12` [25-hydroxyvitamin D3], in the series on circulating CD34+ MDSCs, the “circulating CD34+ MDSCs” value is “reduced the circulating CD34^+ MDSCs” and the clinical outcome is on record as “failed to improve clinical outcome”.

On to `CC1=C(/C=C/C(C)=C/C=C/C(C)=C/C(=O)O)C(C)(C)CCC1` [ATRA, All-trans retinoic acid], for which the “proliferation and IFN-γ production by HBV-specific CD4+ and CD8+ T cells” value in series [1] was “restore the proliferation and IFN-γ production”. In addition, in series [2], the “circulating CD33+HLA-DR− MDSCs” value is on record as “decreased circulating CD33^+HLA-DR^− MDSCs”.
